The numbers were not newly measured in patent publication US7691903B2, “Oxidation-sensitive hydrophilic active principle containing composition and use thereof” (L'Oreal, priority 2002, dated 2010), which cites them from elsewhere.

The conditions of this series: ascorbic acid derivatives; J. Am. Acad. Dermatol., 1996, 34, 29-33.

Take `O=C1O[C@H]([C@@H](O)CO)C([O-])=C1OP(=O)([O-])[O-].O=C1O[C@H]([C@@H](O)CO)C([O-])=C1OP(=O)([O-])[O-].[Mg+2].[Mg+2].[Mg+2]` [magnesium ascorbyl phosphate]: the bioavailability result is recorded as “very low”.
